Test results from ChEMBL document CHEMBL1201862, “PubChem BioAssay data set” (2004).
The source made the active and inactive calls.

What was measured:
[1] = target: T1, Epstein-Barr nuclear antigen 1 (Epstein-Barr virus (strain B95-8) (HHV-4) (Human herpesvirus 4), UniProt P03211); test: EBNA-1 inhibitors, dose response, biochemical, fluorescence polarization, 1536-well (AID 2381); design: species or system human gammaherpesvirus 4;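 also: fluorescence polarization of a Cy5 DNA probe bound by EBNA-1 protein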
T1 sequence (P03211 whole entry): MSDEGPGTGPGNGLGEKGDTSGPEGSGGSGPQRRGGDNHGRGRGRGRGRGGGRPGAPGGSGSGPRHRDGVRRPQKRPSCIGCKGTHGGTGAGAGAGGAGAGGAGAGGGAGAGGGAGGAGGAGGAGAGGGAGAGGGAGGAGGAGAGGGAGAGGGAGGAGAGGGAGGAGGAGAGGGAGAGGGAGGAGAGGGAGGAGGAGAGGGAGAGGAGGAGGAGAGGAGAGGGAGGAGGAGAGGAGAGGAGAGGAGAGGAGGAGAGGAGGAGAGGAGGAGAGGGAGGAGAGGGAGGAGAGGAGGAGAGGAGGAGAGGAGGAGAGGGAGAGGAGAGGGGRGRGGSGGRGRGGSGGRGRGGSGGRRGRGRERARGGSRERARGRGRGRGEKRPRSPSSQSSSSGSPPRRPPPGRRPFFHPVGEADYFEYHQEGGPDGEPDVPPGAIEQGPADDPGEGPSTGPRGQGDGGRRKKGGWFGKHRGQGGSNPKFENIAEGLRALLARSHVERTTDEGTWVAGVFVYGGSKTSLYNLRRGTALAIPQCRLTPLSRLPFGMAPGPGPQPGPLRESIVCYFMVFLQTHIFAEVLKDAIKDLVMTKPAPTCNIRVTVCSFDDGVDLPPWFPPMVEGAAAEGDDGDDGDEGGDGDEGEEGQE

[2] = target: T2, Lytic switch protein BZLF1 (Epstein-Barr virus (strain B95-8) (HHV-4) (Human herpesvirus 4), UniProt P03206); test: EBV ZTA inhibitors, dose response, counter-screen for EBNA-1 inhibitor project, biochemical, fluorescence polarization, Epstein-Barr virus, 1536-well (AID 2377); design: species or system human gammaherpesvirus 4;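 also: fluorescence polarization of Cy5-labelled ZRE DNA probe bound by purified Zta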
T2 sequence (P03206 whole entry): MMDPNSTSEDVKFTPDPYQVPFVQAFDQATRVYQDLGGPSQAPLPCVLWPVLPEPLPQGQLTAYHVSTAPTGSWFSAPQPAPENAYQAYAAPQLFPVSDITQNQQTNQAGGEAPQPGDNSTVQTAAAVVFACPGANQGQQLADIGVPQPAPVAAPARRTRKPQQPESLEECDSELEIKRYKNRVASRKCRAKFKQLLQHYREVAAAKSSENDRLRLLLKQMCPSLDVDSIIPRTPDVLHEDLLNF

Mucolipin-3 = target: T3, Mucolipin-3 (Homo sapiens, UniProt Q8TDD5); test: Dose response cell-based high-throughput screening assay for agonists of the transient receptor potential channel ML3 (TRPML3). [Related pubchem assays: 1526, 1424, 1448 ]; assay type: functional
T3 sequence (Q8TDD5 whole entry): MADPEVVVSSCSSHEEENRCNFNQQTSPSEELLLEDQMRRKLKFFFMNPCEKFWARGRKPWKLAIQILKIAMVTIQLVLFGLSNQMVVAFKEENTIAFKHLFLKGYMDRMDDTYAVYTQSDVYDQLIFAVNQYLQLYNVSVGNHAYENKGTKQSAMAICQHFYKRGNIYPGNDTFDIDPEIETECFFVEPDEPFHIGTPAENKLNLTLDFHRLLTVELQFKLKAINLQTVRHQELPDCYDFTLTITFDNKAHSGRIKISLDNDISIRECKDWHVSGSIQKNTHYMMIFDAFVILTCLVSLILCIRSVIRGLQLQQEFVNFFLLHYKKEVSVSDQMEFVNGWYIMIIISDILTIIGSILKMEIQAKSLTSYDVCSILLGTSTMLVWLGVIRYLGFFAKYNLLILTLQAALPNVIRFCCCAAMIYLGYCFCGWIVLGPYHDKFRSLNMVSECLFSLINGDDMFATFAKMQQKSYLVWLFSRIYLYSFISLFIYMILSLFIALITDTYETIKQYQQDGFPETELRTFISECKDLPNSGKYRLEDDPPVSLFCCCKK

Ion channel NompC = Ion channel NompC (Danio rerio, UniProt Q7T1G6); test: Fluorescence counterscreen assay for TRPML3 agonists: dose response cell-based high-throughput screening assay to identify agonists of the transient receptor potential channel N1 (TRPN1). [Related pubchem assays: 1526, 1424, 1448 ]; assay type: functional
[3] = target: Glyceraldehyde-3-phosphate dehydrogenase (Homo sapiens, UniProt P04406)
Bcl-2-related protein A1 [4] = target: T4, Bcl-2-related protein A1 (Mus musculus, UniProt Q07440); test: Bfl-1 inhibitors blocking BH3 peptide binding, confirmation, biochemical, TR-FRET, mouse Bfl-1 (AID 621);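 also: TR-FRET binding of GST-Bfl-1 to FITC-labelled Bid peptide via terbium antibody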
T4 sequence (Q07440 whole entry): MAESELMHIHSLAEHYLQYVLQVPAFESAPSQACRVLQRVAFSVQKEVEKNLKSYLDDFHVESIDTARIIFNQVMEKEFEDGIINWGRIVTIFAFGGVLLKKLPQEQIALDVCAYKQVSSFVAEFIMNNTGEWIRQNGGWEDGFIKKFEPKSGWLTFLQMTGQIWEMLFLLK

Bcl-2-related protein A1 [5] = target: T4, Bcl-2-related protein A1; test: Bfl-1 binding inhibitors, SAR follow-up, biochemical, fluorescence polarization (AID 1070)
Estrogen receptor beta [6] = target: T5, Estrogen receptor beta (Homo sapiens, UniProt Q92731);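 also: recombinant ER-beta bound to coactivator SRC1 peptide in presence of estradiol agonist; inhibitors block coactivator peptide binding and lower the FRET signal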
Estrogen receptor beta [7] = target: T5, Estrogen receptor beta; test: ERβ–SRC-3 coactivator interaction inhibitors, confirmation, orthogonal assay, biochemical, ELISA, streptavidin-HRP readout (AID 1060)
[8] = target: T6, Carboxy-terminal domain RNA polymerase II polypeptide A small phosphatase 1 (Homo sapiens, UniProt Q9GZU7); test: inhibitors of CTDSP1, concentration-response testing, biochemical assay, absorbance-based, actives from ultra-high-throughput screening (AID 540297); assay type: functional
T6 sequence (Q9GZU7 whole entry): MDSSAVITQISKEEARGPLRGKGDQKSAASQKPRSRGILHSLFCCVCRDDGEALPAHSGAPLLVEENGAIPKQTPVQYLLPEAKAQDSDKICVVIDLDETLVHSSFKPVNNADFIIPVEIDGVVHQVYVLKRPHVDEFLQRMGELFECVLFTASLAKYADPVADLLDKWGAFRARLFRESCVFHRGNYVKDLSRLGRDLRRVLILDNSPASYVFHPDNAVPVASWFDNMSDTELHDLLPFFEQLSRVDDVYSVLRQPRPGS

[9] = target: Voltage-gated inwardly rectifying potassium channel KCNH2 (Homo sapiens, UniProt Q12809); test: hERG protection from proarrhythmic block, potency, dose response, cell-based, thallium flux (AID 2121); assay type: ADME
Cytochrome P450 2D6 = Cytochrome P450 2D6 (Homo sapiens, UniProt P10635); test: qHTS Assay for Inhibitors and Substrates of Cytochrome P450 2D6. [Related pubchem assays: 410 ]; assay type: ADME; details: read-out: Potency
Cytochrome P450 2C9 = Cytochrome P450 2C9 (Homo sapiens, UniProt P11712); details: Potency
[10] = target: Protein-tyrosine kinase 2-beta (Homo sapiens, UniProt Q14289);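 also: potency of inhibitors of PYK2 kinase phosphorylation of poly-GT substrate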
[11] = target: FAD-linked sulfhydryl oxidase ALR (Homo sapiens, UniProt P55789); test: inhibitors of human ALR sulfhydryl oxidase, dose response, biochemical, H2O2 detection, luminescence, cherry-pick (AID 493248)
FAD-linked sulfhydryl oxidase ALR, sequence (P55789 whole entry): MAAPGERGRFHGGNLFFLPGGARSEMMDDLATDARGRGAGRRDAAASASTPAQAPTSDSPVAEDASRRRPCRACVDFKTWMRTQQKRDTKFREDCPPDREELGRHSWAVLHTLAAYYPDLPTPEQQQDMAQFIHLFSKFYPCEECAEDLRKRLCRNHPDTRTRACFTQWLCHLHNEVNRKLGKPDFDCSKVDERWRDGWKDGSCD

Protein-tyrosine kinase 2-beta, sequence (Q14289 whole entry): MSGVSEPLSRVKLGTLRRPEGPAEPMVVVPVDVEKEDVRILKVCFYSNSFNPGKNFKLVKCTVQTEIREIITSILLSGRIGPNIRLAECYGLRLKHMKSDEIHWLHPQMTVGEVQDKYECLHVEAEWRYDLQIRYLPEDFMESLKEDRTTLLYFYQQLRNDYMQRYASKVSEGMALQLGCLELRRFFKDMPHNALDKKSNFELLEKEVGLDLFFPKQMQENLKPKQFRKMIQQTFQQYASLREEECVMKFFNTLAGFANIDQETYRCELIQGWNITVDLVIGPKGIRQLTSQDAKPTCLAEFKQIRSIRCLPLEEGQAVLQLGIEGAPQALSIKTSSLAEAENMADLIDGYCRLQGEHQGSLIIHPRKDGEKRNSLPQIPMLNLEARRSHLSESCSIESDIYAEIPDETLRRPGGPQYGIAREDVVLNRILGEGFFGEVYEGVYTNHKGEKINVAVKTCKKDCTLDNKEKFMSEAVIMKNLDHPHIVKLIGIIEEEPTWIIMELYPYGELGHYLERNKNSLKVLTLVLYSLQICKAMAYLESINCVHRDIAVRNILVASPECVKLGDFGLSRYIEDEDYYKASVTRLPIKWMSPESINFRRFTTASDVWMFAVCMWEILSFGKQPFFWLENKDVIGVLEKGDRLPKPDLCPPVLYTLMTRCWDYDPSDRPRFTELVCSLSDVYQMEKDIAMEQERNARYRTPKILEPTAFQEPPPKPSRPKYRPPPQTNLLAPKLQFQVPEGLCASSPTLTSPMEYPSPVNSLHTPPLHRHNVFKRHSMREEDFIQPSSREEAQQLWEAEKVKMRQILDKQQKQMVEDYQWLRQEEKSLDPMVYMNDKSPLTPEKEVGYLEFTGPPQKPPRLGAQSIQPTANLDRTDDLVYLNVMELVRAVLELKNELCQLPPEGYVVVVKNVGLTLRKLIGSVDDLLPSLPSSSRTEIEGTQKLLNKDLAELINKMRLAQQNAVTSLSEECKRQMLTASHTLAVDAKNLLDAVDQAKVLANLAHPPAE
T5 sequence (Q92731 whole entry): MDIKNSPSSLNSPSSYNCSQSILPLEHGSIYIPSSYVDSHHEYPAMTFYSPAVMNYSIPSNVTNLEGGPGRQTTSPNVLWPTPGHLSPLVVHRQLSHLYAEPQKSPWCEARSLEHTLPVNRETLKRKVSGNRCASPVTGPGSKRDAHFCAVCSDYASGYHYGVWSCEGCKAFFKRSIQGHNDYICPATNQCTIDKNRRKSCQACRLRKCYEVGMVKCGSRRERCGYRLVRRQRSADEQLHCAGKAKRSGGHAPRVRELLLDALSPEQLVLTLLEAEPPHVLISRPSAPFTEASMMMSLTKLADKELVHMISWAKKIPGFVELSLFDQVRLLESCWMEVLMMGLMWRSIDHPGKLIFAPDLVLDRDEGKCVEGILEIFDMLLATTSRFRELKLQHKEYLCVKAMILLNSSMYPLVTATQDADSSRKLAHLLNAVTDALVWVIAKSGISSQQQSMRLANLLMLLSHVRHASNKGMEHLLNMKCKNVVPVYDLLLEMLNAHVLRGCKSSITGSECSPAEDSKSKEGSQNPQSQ
Cytochrome P450 2C9, sequence (P11712 whole entry): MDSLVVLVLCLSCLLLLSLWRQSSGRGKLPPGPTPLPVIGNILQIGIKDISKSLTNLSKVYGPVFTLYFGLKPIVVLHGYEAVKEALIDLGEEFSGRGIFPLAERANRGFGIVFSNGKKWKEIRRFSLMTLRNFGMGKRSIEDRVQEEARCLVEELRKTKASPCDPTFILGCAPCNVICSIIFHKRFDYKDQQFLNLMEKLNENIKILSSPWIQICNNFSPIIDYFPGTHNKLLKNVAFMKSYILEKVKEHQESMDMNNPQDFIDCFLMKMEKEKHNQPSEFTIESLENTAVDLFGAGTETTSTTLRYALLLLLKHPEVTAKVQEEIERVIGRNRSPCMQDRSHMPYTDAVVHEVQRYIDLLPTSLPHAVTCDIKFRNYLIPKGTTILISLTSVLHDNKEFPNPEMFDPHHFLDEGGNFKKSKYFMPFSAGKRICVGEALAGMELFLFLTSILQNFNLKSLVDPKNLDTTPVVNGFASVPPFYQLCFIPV
Voltage-gated inwardly rectifying potassium channel KCNH2, sequence (Q12809 whole entry): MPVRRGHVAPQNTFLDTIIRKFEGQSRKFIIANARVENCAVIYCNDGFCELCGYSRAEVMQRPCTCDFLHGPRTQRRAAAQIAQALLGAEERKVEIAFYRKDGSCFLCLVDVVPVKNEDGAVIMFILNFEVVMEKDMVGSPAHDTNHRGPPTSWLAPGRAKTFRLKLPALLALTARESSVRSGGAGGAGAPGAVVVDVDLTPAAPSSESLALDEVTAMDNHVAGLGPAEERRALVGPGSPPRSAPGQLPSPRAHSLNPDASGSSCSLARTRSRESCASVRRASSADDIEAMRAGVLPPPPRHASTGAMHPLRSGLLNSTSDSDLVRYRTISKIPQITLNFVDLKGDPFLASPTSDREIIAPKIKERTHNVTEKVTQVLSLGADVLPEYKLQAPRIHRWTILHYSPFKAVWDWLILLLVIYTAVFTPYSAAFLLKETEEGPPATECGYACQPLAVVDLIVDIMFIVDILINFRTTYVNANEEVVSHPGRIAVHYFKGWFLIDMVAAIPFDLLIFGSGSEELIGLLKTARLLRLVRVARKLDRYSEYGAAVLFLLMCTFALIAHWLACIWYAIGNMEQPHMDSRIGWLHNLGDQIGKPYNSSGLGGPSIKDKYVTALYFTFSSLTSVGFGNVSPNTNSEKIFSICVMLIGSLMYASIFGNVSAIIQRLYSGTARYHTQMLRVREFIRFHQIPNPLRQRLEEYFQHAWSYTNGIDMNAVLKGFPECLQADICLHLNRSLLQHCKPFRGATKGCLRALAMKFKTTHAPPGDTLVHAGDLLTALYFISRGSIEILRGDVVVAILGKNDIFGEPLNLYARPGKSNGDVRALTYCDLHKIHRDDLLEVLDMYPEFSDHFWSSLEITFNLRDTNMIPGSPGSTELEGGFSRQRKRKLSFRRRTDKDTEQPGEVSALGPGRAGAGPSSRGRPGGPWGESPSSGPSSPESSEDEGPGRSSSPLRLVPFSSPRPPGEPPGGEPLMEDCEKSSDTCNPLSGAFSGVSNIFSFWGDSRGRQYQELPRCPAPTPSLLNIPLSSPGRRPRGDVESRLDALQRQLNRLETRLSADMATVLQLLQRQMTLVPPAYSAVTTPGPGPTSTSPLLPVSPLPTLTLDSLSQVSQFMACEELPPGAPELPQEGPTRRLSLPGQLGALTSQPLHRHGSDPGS
Glyceraldehyde-3-phosphate dehydrogenase, sequence (P04406 whole entry): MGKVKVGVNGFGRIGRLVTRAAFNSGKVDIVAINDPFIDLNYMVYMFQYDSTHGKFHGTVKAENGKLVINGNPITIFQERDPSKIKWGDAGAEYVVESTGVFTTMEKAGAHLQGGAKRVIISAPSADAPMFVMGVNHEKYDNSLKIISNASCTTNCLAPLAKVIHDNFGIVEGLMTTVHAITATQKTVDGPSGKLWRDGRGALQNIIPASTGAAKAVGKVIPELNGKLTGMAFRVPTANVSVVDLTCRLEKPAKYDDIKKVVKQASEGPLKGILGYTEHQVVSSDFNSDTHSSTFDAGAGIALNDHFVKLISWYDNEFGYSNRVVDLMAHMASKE
Cytochrome P450 2D6, sequence (P10635 whole entry): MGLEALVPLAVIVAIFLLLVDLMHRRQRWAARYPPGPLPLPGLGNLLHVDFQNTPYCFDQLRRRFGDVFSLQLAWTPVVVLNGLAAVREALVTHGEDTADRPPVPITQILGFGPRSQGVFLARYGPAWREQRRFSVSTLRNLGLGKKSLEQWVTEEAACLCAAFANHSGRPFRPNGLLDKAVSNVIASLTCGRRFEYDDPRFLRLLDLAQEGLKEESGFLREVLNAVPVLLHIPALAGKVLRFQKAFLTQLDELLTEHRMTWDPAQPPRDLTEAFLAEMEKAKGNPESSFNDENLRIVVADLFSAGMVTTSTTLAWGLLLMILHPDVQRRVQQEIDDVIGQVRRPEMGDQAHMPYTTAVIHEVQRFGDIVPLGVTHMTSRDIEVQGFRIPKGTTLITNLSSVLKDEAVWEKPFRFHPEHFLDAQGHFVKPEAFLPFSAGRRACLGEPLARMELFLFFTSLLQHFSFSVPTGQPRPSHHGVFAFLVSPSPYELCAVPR

How did the IC50 [1] turn out when `O=C(Nc1cccc(-c2nnc(-c3ccccc3)o2)c1)C1CCCCC1` was run?
Its IC50 is 6.03 µM (active).

What about the IC50 [2] of the same compound?
Its IC50 is > 111 µM (not active).

With `Cc1cc(C)cc(N(CC(=O)N2CCOCC2)S(=O)(=O)c2ccccc2)c1` as the compound, how does the EC50 (Mucolipin-3) read?
Its EC50 is 3.71 µM (active).

And the EC50 (Ion channel NompC)?
The EC50 was > 29.9 µM (not active).

How did the IC50 [3] turn out when `Cc1ccccc1N1CCN(C2=C(Cl)C(=O)N(c3ccc(Cl)c(Cl)c3)C2=O)CC1` was run?
The IC50 was > 100 µM (not active).

And the IC50 (Bcl-2-related protein A1 [4])?
The IC50 was > 100 µM (not active).

And the IC50 (Bcl-2-related protein A1 [5])?
Its IC50 is > 100 µM (not active).

How did the IC50 (Estrogen receptor beta [6]) turn out when `O=C(Cc1cccs1)Nc1ccc(S(=O)(=O)N2CCCCC2)cc1` was run?
Its IC50 is 2.71 µM (active).

What about the IC50 (Estrogen receptor beta [7]) of the same compound?
The IC50 was < 77 µM (not active).

And the IC50 [8]?
Its IC50 is 4.95 µM (active).

For `COc1ccc(/C=C2/NC(=O)N(CC(=O)Nc3cccc(C)c3)C2=O)cc1O`, which IC50 [1] is on record?
Its IC50 is 9.14 µM (active).

And the IC50 [2]?
Its IC50 is > 111 µM (not active).

For `O=C(COc1ccc(Cl)cc1Cl)NC(=S)N1CCCc2ccccc21`, which EC50 [9] is on record?
The EC50 was 4.06 µM (active).

How did the AC50 (Cytochrome P450 2D6) turn out when `C=C(C)C(O)/C=C/c1cccc(OC)c1` (stereo not drawn) was run?
Its AC50 is 7.94 µM (inconclusive).

What about the AC50 (Cytochrome P450 2C9) of the same compound?
Its AC50 is 7.94 µM (inconclusive).

How did the IC50 [10] turn out when `N#C/C(=N\Nc1c(Cl)cccc1Cl)C(=O)NN` was run?
Its IC50 is 28.2 µM (not active).

What about the AC50 [11] of the same compound?
Its AC50 is 2.37 µM (active).

How did the IC50 [10] turn out when `O=c1c(/C=N/O)c(Nc2ccccc2)nc2ccccn12` was run?
The IC50 was > 69.5 µM (not active).
